Assay [1] in a line: Cytotoxicity against human 9KB cells. Type of assay: functional. As to conditions: read-out: ED50 (the source's name).
The next assay concerns P388. In words: In vivo antitumor activity against mouse P388 cells at 7.5 mg/kg relative to control. Type of assay: functional.
The next assay concerns B16. Put plainly: In vivo antitumor activity against mouse B16 cells at 1.5 to 12.0 mg/kg relative to control. Type of assay: functional, organism-based.

The structures appear in SMILES notation. In brackets after ≈: the same amount, converted by molar mass. Activity calls are given as the source filed them. No cut-off for these calls is given here.

Consider `COc1cc([C@@H]2c3cc4c(cc3C[C@H]3COC(=O)[C@@H]32)OCO4)cc2c1OCO2` [AUSTROBAILIGNAN 1], for which the EC50 in assay [1] is 0.027 µg/mL (≈ 0.0706 µM). Moreover, in the assay on P388, the T/C (as a rule, the result in the treated group divided by that in the control group, in per cent) was determined as 125%. For the same molecule, the result in the assay with B16 was inactive. As for `CC[C@H](CC[C@@H](C)[C@H]1CC[C@H]2[C@@H]3CC=C4C[C@@H](O)CC[C@]4(C)[C@H]3CC[C@]12C)C(C)C` [BETA-SITOSTEROL], the EC50 in assay [1] is 22 µg/mL (≈ 53 µM).

`CC(C)(O)[C@H](O)COc1c2occc2cc2ccc(=O)oc12` [HERACLENOL]: the EC50 in assay [1] is more than 100 µg/mL. For `CC(C)=CCOc1c2occc2cc2ccc(=O)oc12` [PENTOSALEN], the EC50 in assay [1] amounted to 33 µg/mL (≈ 122 µM). On the same count and under the same terms, the same measure for `COc1c2ccoc2c(OCC=C(C)C)c2oc(=O)ccc12` [PHELLOPTERIN]: 7.2 µg/mL (≈ 24 µM). `O=C1OC[C@H](Cc2ccc3c(c2)OCO3)/C1=C\c1ccc2c(c1)OCO2` [SAVININ]: the EC50 in assay [1] was found to be 22 µg/mL (≈ 62.4 µM). In the case of `COc1cc2ccc(=O)oc2cc1O` [SCOPOLETIN], the EC50 in assay [1] amounted to 2.9 µg/mL (≈ 15.1 µM). On the same count and under the same terms, under `CC1(C)C=Cc2c(ccc3ccc(=O)oc23)O1` [SESALIN] stands 31 µg/mL (≈ 136 µM); under `O=C1OCC(C(O)c2ccc3c(c2)OCO3)C1Cc1ccc2c(c1)OCO2` (stereo unspecified) [SVENTENIN], 23 µg/mL (≈ 62.1 µM).
